The results in this text go back to US11426402B2, “IRE1 activating compounds for use in therapy” (The Scripps Research Institute, priority 2019, dated 2022).

For series [1], the system named is IRE1/XBP1s signaling pathway. The series can be described thus: XBP1-RLuc splicing reporter in HEK293T-REx cells. The class given is cell-based. The conditions noted are these: HEK293-T-REx; HEK293T-REx XBP1-RLuc cells, 18 hr; read-out: EC50 of XBP1-RLuc activation. As for the experimental part:
FIG. 2A and FIG. 2B. Activation of RLuc luminescence in HEK293T-Rex cells stably expressing XBP1s-RLuc treated with 10 μM IRE1 activators in the presence or absence of IRE1 inhibitor 4 μ8c (32 μM) for 18 hr. Luminescence is shown as % signal relative to Tg treatment (500 nM; 18 hr). Error bars represent standard deviation for n=3 replicates (FIG. 2A), Activation of RLuc luminescence in HEK293T-Rex cells stably expressing XBP1s-RLuc treated with the indicated concentrations of IRE1 activator compounds for 18 hr. Luminescence is shown as % signal relative to Tg treatment (500 nM; 18 hr) Error bars represent standard deviation for n=3 replicates (FIG. 2B).
HEK293T-Rex cells incorporating either the XBP1s-Rluc or ERSE-FLuc reporters were collected by trypsinization and resuspended at a density of 500,000 cells per mL. The assay was started by dispensing 5 μL of cell suspension into each well of white, solid-bottom 1536-well plates using a flying reagent dispenser (FRD) and placed into an online incubator for 3 hr. Cells were then treated with 34 nL/well of either test compounds to give final concentrations of 5.17 μM, DMSO (low control, final concentration 0.68%, 0% activation) or 37 μM of Delta-7 thapsigargin (high control, final concentration 500 nM, 100% activation). Plates were incubated for 18 hr at 37° C., removed from the incubator and equilibrated to room temperature for 10 min. Luciferase activity was detected by addition of 5 μL of ONE-Glo reagent (Promega) to each well. After a 10 min incubation time, light emission was measured with the ViewLux reader (PerkinElmer).
The percent activation of each test compound was calculated as follows: % Activation=100*(Test Compound-Median Low Control)/(Median High Control Median Low Control). Primary screening of the 646,275 compound library at Scripps Florida yielded 10,114 hits for XBP1s Renilla Luciferase activity at ≥13.83% activation by thapsigargin. Compounds that hit in more than 7 screens (promiscuity score) were eliminated, as well as those that elicited HSP70 activation. The top 6,391 remaining compounds (activation≥16.36%) were moved forward to triplicate confirmation screening and HEK TREX CTG cytotoxicity counterscreening. Duplicates were removed from the resulting list, and the top 638 activating compounds (≥15.92%) were moved forward for triplicate titration screening and HEK TREX CTG titration counterscreening.
A HEK293^T-REx cell line that stably expresses a XBP1-Renilla luciferase (XBP1-RLuc) splicing reporter was used to identify compounds that activated the IRE1/XBP1s signaling pathway^37. Activated IRE1selectively splices mRNA encoded by this reporter, resulting in a frame-shift that allows expression of the active Renilla luciferase enzyme^37. […]

In a further series the test system is XBP1 splicing. The series can be described thus: XBP1 splicing in wild-type and Ire1-deficient MEF cells. The class given is cell-based, mouse. Particulars: for XBP1 splicing: Ire1-deficient MEF cells; for IRE1-dependent XBP1 splicing: wild-type MEF cells. The procedure: To amplify the spliced and unspliced XBP1 mRNA, XBP1 primers were used as described previously.^21 PCR products were electrophoresed on 2.5% agarose gel. GAPDH (forward 5′[…]3′, reverse 5′[…]3′) was used as a loading control. The size difference between the spliced and the unspliced XBP1 is 26 nucleotides.
Compounds 474, 198, and 970 were selected as exemplary hits based on their selective IRE1-depedendent induction of DNAJB9, their EC50 of XBP1-RLuc activation of <3 μM and their high maximal activation of IRE1signaling measured by both XBP1s-RLuc activity and DNAJB9 expression (>50% that observed with Tg). […] However, this splicing was not observed in Ire1-deficient MEF cells, further confirming that these compounds increase XBP1 splicing by an IRE1-dependent mechanism.

In series [2] the test system is stress-responsive signaling pathways. Kind of series: Gene Ontology and stress-responsive geneset analysis of RNAseq in HEK293T cells. The class given is cell-based, human. The procedure: (§1) Cells were lysed and total RNA collected using the RNeasy mini kit, according to manufacturer's instructions (Qiagen). Conventional RNA-seq was conducted via BGI Americas on the BGI Proprietary platform, providing single-end 50 bp reads at 20 million reads per sample. Alignment of sequencing data was done using DNAstar Lasergene SeqManPro to the GRCh37. p 13 human genome reference assembly, and assembly data were imported into ArrayStar 12.2 with QSeq (DNAStar Inc.) to quantify the gene expression levels and normalization to reads per kilobase per million (RPKM). Differential expression analysis and statistical significance calculations between different conditions was assessed using “DESeq” in R, compared to vehicle-treated cells, using a standard negative binomial fit of the RPKM data to generate Fold Change quantifications.

For another series, the system named is XBP1s. The series can be described thus: Overlap of compound-induced genes with dox-dependent XBP1s activation in HEK293DAX cells. The class given is cell-based, human. The procedure: as §1
These cells stably express both doxycycline (dox)-inducible XBP1s and trimethoprim (TMP) regulated DHFR.ATF6, allowing stress-independent activation of XBP1s and/or ATF6 signaling through addition of the activating ligands dox or TMP, respectively^8.

Another series deals with CHO 7PA2 cells. Kind of series: CHO 7PA2 viability. Type of series: cell-based.

The structures appear in SMILES notation.

As usually defined, the EC50 is the concentration at which the effect is half-maximal. In the case of `CCOC(CNC(=O)C1CCCN(Cc2nc(-c3ccc(Cl)cc3)oc2C)C1)OCC` (stereo not drawn) [Compound 198], in series [1], the EC50 is < 3 µM. In the series on XBP1 splicing, the XBP1 splicing result is recorded as “not observed” and the “IRE1-dependent XBP1 splicing” value is “increased”. In series [2], the “Gene Ontology analysis of induced genes” value is “primarily induce expression of genes annotated with GO terms related to ER stress and the UPR”; the “activation of other stress responsive signaling pathways apart from IRE1/XBP1s” value (from here on “activation … from IRE1/XBP1s”) is “to a lesser extent”. Besides, the “overlap of genes induced >1.2 fold with dox-dependent XBP1s activation” value (“overlap of genes induced >1.2 fold” for short) in the series on XBP1s is listed as “less overlap”. The “CHO 7PA2 viability” value in the series on CHO 7PA2 cells is on record as “did not significantly influence”.
Consider `Cc1ccc(OCCN(C)C(=O)Cn2cc(NC(=O)CCOc3ccccc3)cn2)cc1` [Compound 474], for which the half-maximal effective concentration (EC50) in series [1] is < 3 µM. In the series on XBP1 splicing, the XBP1 splicing entry is on record as “not observed” and the “IRE1-dependent XBP1 splicing” value is “increased”. In series [2], the “Gene Ontology analysis of induced genes” value was “primarily induce expression of genes annotated with GO terms related to ER stress and the UPR”; the “activation … from IRE1/XBP1s” value is on record as “do not significantly activate”. Further, in the series on XBP1s, the “overlap of genes induced >1.2 fold” value is > 80% and the “top 100 induced genes overlapping with genes induced by dox-dependent XBP1s activation” value is given as “majority”. For the same compound, the “CHO 7PA2 viability” value in the series on CHO 7PA2 cells is “did not significantly influence”.
With `O=C(CN(Cc1ccc(Cl)cc1)S(=O)(=O)c1cccnc1)N1CCc2ccccc21` [Compound 970], in series [1], the EC50 was < 3 µM. Also, in the series on XBP1 splicing, the XBP1 splicing result is recorded as “not observed” and the “IRE1-dependent XBP1 splicing” value is “increased”. Moreover, in series [2], the “Gene Ontology analysis of induced genes” value was “primarily induce expression of genes annotated with GO terms related to ER stress and the UPR”; the “activation … from IRE1/XBP1s” value is on record as “do not significantly activate”. In the series with XBP1s, the “induction of most non-overlapping genes” value is on record as < 1.3 fold, the “overlap of genes induced >1.2 fold” value is recorded as > 60% and the “top 100 induced genes overlapping with genes induced by dox-dependent XBP1s activation” value is recorded as “majority”. Moreover, the “CHO 7PA2 viability” value in the series with CHO 7PA2 cells was “did not significantly influence”.
